Structures are written as SMILES. Activity calls are given as the source filed them.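 The calls were made as follows: active = EC50 no more than a set limit of log units above the highest dose; inactive = the rest.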 A value given as a limit tells only on which side of the number the result lay.

For this experiment, the target named is S. pyogenes SKKanGAS, kanamycin survival, BacTiterGlo, 6 h. The experiment in a line: SKKanGAS survival reduction under kanamycin, dose response, streptokinase promoter inhibitor project, SKKanGAS strain, luminescence, dose confirmation (AID 1902).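 Also: lower survival reflects blocked streptokinase promoter driving kanamycin resistance gene.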

In the case of `CCc1nnc(NC(=O)c2ccc(S(=O)(=O)N(C)c3ccccc3)cc2)o1`, the concentration giving a half-maximal response (EC50) was 4.71 µM.
Next, `Cc1ccccc1NS(=O)(=O)c1ccc(C)c(C(=O)N2CCOCC2)c1`: > 15 µM (inactive).
Next, `Cc1cnn(-c2nc(-c3ccccc3)cc(-c3ccccc3)n2)c1`: 4.51 µM; `Clc1ccccc1CN(Cc1ccccc1)c1ncnc2nc[nH]c12`: 3.85 µM; `CSc1nc(Oc2ccc3ccccc3c2)c2sccc2n1`: 7.58 µM.
`CC(=O)Oc1ccccc1C1=NN(C(=O)/C=C/c2ccccc2)C(c2ccccc2)C1` (configuration not stated): the EC50 was 5.15 µM.
Next, `NC(N)=N/N=C/c1ccc(N(c2ccccc2)c2ccccc2)cc1`: 2.06 µM.
Next, `CC(=O)Oc1ccc(/C=N/NS(=O)(=O)c2ccccc2)cc1`: > 15 µM (inactive); `Cc1ccc(OCCSc2nc(NC(C)C)nc(NC(C)C)n2)cc1`: 4.4 µM.
Next, `CCc1cccc2c(C(=O)COC(=O)/C=C/c3ccc(O)c(OC)c3)c[nH]c12`: 7.63 µM; `Cc1ccccc1N1CCN(S(=O)(=O)c2nnc(NC(=O)c3ccco3)s2)CC1`: 4.46 µM.
With `Oc1ccc2ccccc2c1/C=N/Nc1nnc(-c2ncc[nH]2)c2ccccc12`, the EC50 is 1.55 µM.
Next, `O=C(Nc1nc2ccc(F)cc2s1)c1ccccn1`: 0.694 µM.
Take `O=C(c1cc(-c2ccccc2)nc2ccccc12)N1CCN(c2ccccc2O)CC1`: the EC50 was 6.96 µM.
Next, `O=C(NC(=S)NNC(=O)c1ccccc1O)c1ccccc1`: 2.35 µM; `COc1ccc(C(=O)NNC(=S)NC(=O)c2ccccc2)cc1`: 0.995 µM; `O=[N+]([O-])c1ccc(O)c(-c2cc(C(F)(F)F)nc(-c3ccccc3)n2)c1`: 0.205 µM.
Next, `Cc1nn(Cc2ccccc2Cl)c2sc(C(=O)Nc3ccccc3N3CCOCC3)cc12`: 2.92 µM.
Next, `CCCc1ccc(Oc2cn[nH]c2-c2ccc(O)c(C)c2O)cc1`: 1.8 µM; `C#C[C@]1(O)CC[C@H]2[C@@H]3CCc4cc(OC5CCCC5)ccc4[C@H]3CC[C@@]21C`: 2.6 µM; `COc1cc(/C=N/Nc2nc(Nc3ccccc3)nc(-n3nc(C)cc3C)n2)cc(OC)c1OC`: 3.14 µM.
`CCN(CC)CCN(C(=O)C1=COCCO1)c1nc2cc(C)cc(C)c2s1`: the EC50 is > 15 µM (inactive).
Next, `Cc1cc(C)c(S(=O)(=O)/N=C2\C=C(Nc3ccc(C(=O)O)cc3)C(=O)c3ccccc32)c(C)c1`: 1.16 µM; `CN(CC1CCCO1)S(=O)(=O)c1ccc(C(=O)Nc2ccccc2F)cc1` (configuration not stated): > 15 µM (inactive).
Next, `O=C(C[n+]1cnn(CC(=O)c2ccc(Cl)cc2Cl)c1)c1ccc([N+](=O)[O-])cc1`: 12.3 µM.
On to `Clc1ccc(-c2n[nH]c3c2CCC3)cc1Cl`, for which the EC50 is 12.6 µM.
As for `COC(=O)c1nc(NC(=S)NC(=O)c2cccs2)sc1C`, the EC50 is 12.7 µM.
`Oc1[nH]c2ccc(Br)cc2c1N=NC(=S)Nc1ccc(F)cc1`: the EC50 was 0.115 µM.
Next, `Cc1ccc(-c2nc3c(Cl)cc(Cl)cc3c(=O)n2O)cc1`: 0.808 µM.
`COC(=O)CSc1nnc(-c2cnccn2)n1C`: the EC50 was > 15 µM (inactive).
For the compound `Cc1cccc(NC2=Nc3ccccc3N3C2=Nc2c(c(C)nn2-c2ccccc2)C3c2ccc(O)c(O)c2)c1` (configuration not stated), the EC50 was 4.54 µM.
Next, `Cc1cc(NC(=O)/C=C/c2ccccc2Cl)n(-c2nc3ccccc3[nH]2)n1`: 1.9 µM; `CC(Oc1ccc(F)cc1)C(=O)Nc1ccccc1N1CCCCC1` (configuration not stated): 5.01 µM; `S=c1[nH]cnc2scc(-c3ccc(Cl)cc3)c12`: 9.77 µM.
Consider `COc1ccc(C2c3ccc(O)cc3Oc3ncn4nc(-c5ccncc5)nc4c32)cc1OC` (configuration not stated), for which the EC50 is 6.28 µM.
Next, `COc1ccc2nc(C3CCCCC3)nc(C3CCCCC3)c2c1`: 2.66 µM.
As for `COc1ccc(O)c(C(=O)CC(=O)c2ccccc2C)c1`, the EC50 is 4.76 µM.
Next, `COc1cc(-c2c(C#N)c(N)nc3c2c(C)nn3-c2ccc(C)c(C)c2)cc(OC)c1OC`: 4.53 µM.
Take `CCc1cccc2sc(N3CCN(C(=O)c4ccc([N+](=O)[O-])o4)CC3)nc12`: the EC50 was 4.73 µM.
Next, `O=C(O)c1cccc2c(-c3ccccc3)c(-c3ccccc3)[nH]c12`: 8.51 µM; `CCOC(=O)c1c(S(=O)(=O)N2CCCCCC2)c(C)n(C)c1C`: > 15 µM (inactive); `O=C(O)CCn1cc(/C=C/C(=O)c2ccc(Cl)cc2)c(-c2cccc(Br)c2)n1`: 3.68 µM.
Turning to `COc1ccc(Oc2nc(-c3ccccn3)ncc2OC)cc1`, the EC50 is 1.45 µM.
For the compound `COc1ccc(CC2=CC(=O)c3ccccc3C2=O)cc1`, the EC50 is 7.96 µM.
Next, `O=S(=O)(Nc1nc2ccccc2nc1Cl)c1ccc2ccccc2c1`: > 5 µM (inactive).
As for `COc1ccc(-c2oc(NC(=O)CCl)c(C#N)c2-c2ccc(OC)cc2)cc1`, the EC50 was 3.11 µM.
Next, `O=C(NC(=S)NNC(=O)[C@H]1C[C@@H]1c1ccccc1)c1ccc(F)cc1`: 0.715 µM; `CCCCn1c(CCCNC(=O)c2ccco2)nc2ccccc21`: > 15 µM (inactive).
Next, `O=c1c2cc(Br)ccc2nc(-c2cccc(Cl)c2)n1O`: 1.09 µM; `O=c1oc2ccccc2c(O)c1C(c1ccc([N+](=O)[O-])cc1)c1c(O)c2ccccc2oc1=O`: 6.3 µM.
Next, `Cc1ccc2nc(N3C(=O)CNC3=S)sc2c1`: 4.32 µM.
On to `O=[N+]([O-])c1cc(S(=O)(=O)Nc2cccc(Cl)c2)ccc1N=Nc1c(O)[nH]c2ccccc12`, for which the EC50 was 3.61 µM.
With `CN(C)[C@@H]1C(=O)C(C(N)=O)=C(O)[C@@]2(O)C(=O)C3=C(O)c4c(O)ccc(Cl)c4[C@@](C)(O)[C@H]3C[C@@H]12`, the EC50 is 0.065 µM.
Next, `O=C(N/N=C/c1ccc([N+](=O)[O-])o1)c1cn(-c2ccccc2)nc1-c1ccc(F)cc1`: 1.16 µM; `O=C(NC(=S)NNC(=O)c1cccs1)c1ccccc1`: 5.73 µM.
Next, `O=C(O)CN1C(=O)/C(=C\c2cc(Br)ccc2OCc2ccccc2Cl)SC1=S`: 2.08 µM; `CCCCCn1c(N)c(-c2nc3ccccc3s2)c2c([N+](=O)[O-])nn(CC)c(=O)c21`: 8.16 µM; `O=C(COC(=O)c1ccccc1Br)Nc1nnc(-c2ccccc2)o1`: 0.689 µM.
For the compound `N#Cc1c(-c2ccccc2)nc(SCc2cccc(C(F)(F)F)c2)[nH]c1=O`, the EC50 was 1.97 µM.
Next, `Cc1ccc(C(=O)C2=C(O)C(=O)N(Cc3ccco3)C2c2cccc(Br)c2)o1` (configuration not stated): 6.67 µM; `NS(=O)(=O)c1ccc(N2N=C(c3ccccc3)CC2c2ccc(F)cc2)cc1` (configuration not stated): 5.28 µM.
Next, `Cc1noc(C)c1CSc1nc2sc(C)c(C)c2c(=O)n1C1CCCC1`: 2.94 µM; `COCC1CCN(C(=O)c2ccc3oc(Cc4ccccc4)nc3c2)C1` (configuration not stated): > 15 µM (inactive).
Next, `O=C(N/N=C(\c1ccccc1)c1cccnc1)c1cccc(F)c1`: 3.49 µM; `Oc1cccc(NC(=S)N=Nc2c(O)[nH]c3ccc(Br)cc23)c1`: 2.33 µM.
For the compound `Oc1ccc(N=Nc2ccc3c(c2)OCCO3)c2ncccc12`, the EC50 is 0.419 µM.
Next, `O=[N+]([O-])c1cccc(/C=C/c2ccc3cccc(O)c3n2)c1`: 2.25 µM.
In the case of `Cc1ccccc1/C=C1\Sc2ccc(C(=O)N3CCN(c4ccccn4)CC3)cc2N(C)C1=O`, the EC50 was 6.47 µM.
Next, `O=C(O)c1ccc(N2CCCCS2(=O)=O)cc1`: > 15 µM (inactive).
Turning to `N=c1c2c(-c3ccccc3)c(-c3ccccc3)oc2ncn1Cc1ccco1`, the EC50 was 3.27 µM.
Next, `CC(C)c1ccc(-c2nc(N3CCCC3)nc3n[nH]c(N)c23)cc1`: 8.74 µM.
Next, `C/C(N)=C(/C#N)C(=O)CSc1nc2scc(-c3ccccc3)c2c(=O)n1C`: 1.62 µM; `CCN(CC)c1nc(C(F)(F)F)nc2c1nnn2Cc1ccccc1`: 3.62 µM.
With `O=C(CCc1ccccc1)NNC(=S)NC(=O)c1ccccc1`, the EC50 is 1.81 µM.
Consider `Cc1cccc2sc(NNC(=O)c3ccc(S(=O)(=O)N4CCc5ccccc5C4)cc3)nc12`, for which the EC50 was 0.368 µM.
Next, `Nc1ccc2c(c1)C(=O)C(=O)c1ccccc1-2`: 0.754 µM.
For the compound `COc1ccc(NS(=O)(=O)c2ccc3ccccc3c2)c2ncccc12`, the EC50 is 1.2 µM.
For `CN(C)c1ccc(O)c2c1CC1CC3C(N(C)C)C(=O)C(C(N)=O)=C(O)[C@@]3(O)C(=O)C1=C2O` (some centres not stated), the EC50 was 0.096 µM.
Next, `COc1ccccc1-c1cc(=O)c2c(O)ccc([N+](=O)[O-])c2o1`: 2.56 µM; `CO[C@H]1C=CO[C@@]2(C)Oc3c(C)c(O)c4c(O)c(c(C=NN5CCN(C)CC5)c(O)c4c3C2=O)NC(=O)C(C)=CC=C[C@H](C)[C@H](O)[C@@H](C)[C@@H](O)[C@@H](C)[C@H](OC(C)=O)[C@@H]1C`: below 0.06 µM.
Turning to `O=C(NNC(=S)NC(=O)c1cn(-c2ccccc2)nc1-c1ccccc1)c1ccncc1`, the EC50 was 0.151 µM.
For the compound `CCc1c(C)c(C#N)c2[nH]c3ccccc3n2c1=S`, the concentration giving a half-maximal response (EC50) is 14.1 µM.
Next, `Nc1[nH]n2c(=O)cc(-c3ccccc3)nc2c1N=Nc1ccccc1`: 1.83 µM.
Next, `CCn1cc(C(=O)O)c(=O)c2cc(F)c(N3CCN(S(=O)(=O)c4ccc5c(c4)OCCO5)CC3)cc21`: 2.9 µM; `CNc1ccc2oc(C[C@H]3O[C@@]4(CC[C@H]3C)O[C@H]([C@H](C)C(=O)c3ccc[nH]3)[C@H](C)C[C@H]4C)nc2c1C(=O)O`: below 0.06 µM; `CC(C)(O)c1ccccc1CC[C@@H](SCC1(CC(=O)O)CC1)c1cccc(/C=C/c2ccc3ccc(Cl)cc3n2)c1`: 1.44 µM.
Regarding `CCCCn1c(O)c(C(CC)=Nc2ccc3c(c2)CCC3)c(=O)[nH]c1=O`, the 50% effective concentration (EC50) was 6.01 µM.
Next, `CC(/C=C1\SC(=O)N(CC(=O)Nc2ccc(O)cc2)C1=O)=C\c1ccccc1`: 8.02 µM; `CCn1c(=O)c(C(=O)NNC(=O)c2ccccc2)c(O)c2ccccc21`: 0.839 µM.
Next, `CCN1C(=O)C(CC(=O)Nc2ccc(Br)cc2)N(CCCc2ccccc2)C1=S` (configuration not stated): 2.9 µM; `CC(C)(C)c1ccc(-c2noc(-c3ccc4c(c3)CCO4)n2)cc1`: 7.95 µM.
Next, `Brc1cc2c(cc1C1Nc3ccccc3C3C=CCC31)OCO2` (configuration not stated): 5.37 µM.

(Values after PubChem BioAssay AID1902 (Broad Institute, 2009).)
